This passage reports IC50 results from patent US10030006B2, “Coumarin based Hsp90 inhibitors with urea and ether substituents” (University of Kansas, priority 2013, dated 2018).

Read-outs that look alike come from different tables or passages of the source.

Assay [1] concerns SKBr3 (estrogen receptor negative, Her2 over-expressing breast cancer cells). As to the kind of experiment: Anti-proliferation assay (MTS/PMS, 72 h), SKBr3. Type of assay: cell-based. As for the experimental part: (§1) Cells were maintained in a 1:1 mixture of Advanced DMEM/F12 (Gibco) supplemented with non-essential amino acids, L-glutamine (2 mM), streptomycin (500 μg/mL), penicillin (100 units/mL), and 10% FBS. Cells were grown to confluence in a humidified atmosphere (37° C., 5% CO2), seeded (2000/well, 100 μL) in 96-well plates, and allowed to attach overnight. Compound at varying concentrations in DMSO (1% DMSO final concentration) was added, and cells were returned to the incubator for 72 h. At 72 h, the number of viable cells was determined using an MTS/PMS cell proliferation kit (Promega) per the manufacturer's instructions. Cells incubated in 1% DMSO were used at 100% proliferation, and values were adjusted accordingly. IC50 values were calculated from separate experiments performed in triplicate using GraphPad Prism.
(§2) The anti-proliferative activity of these compounds is evaluated against two breast cancer cell lines, SKBr3 (estrogen receptor negative, Her2 over-expressing breast cancer cells) and MCF-7 (estrogen receptor positive breast cancer cells).

For assay [2], the system named is MCF-7 (estrogen receptor positive breast cancer cells). As to the kind of experiment: Anti-proliferation assay (MTS/PMS, 72 h), MCF-7. The format is cell-based. As for the experimental part: as §1, §2
[3] abbreviates: Homo sapiens, SK-BR-3, Table 1, modified benzamide coumarin derivatives, read-out: SKBr3.
[4] abbreviates: Homo sapiens, MCF7, Table 1, modified benzamide coumarin derivatives, read-out: MCF-7.
[5] abbreviates: Table 3, cycloamine analogues, read-out: SKBr3.
Setting [6] is: Table 3, cycloamine analogues, read-out: MCF-7.
[7] abbreviates: Homo sapiens, SK-BR-3, Table 4, alkylamino analogues, read-out: SKBr3.
Setting [8] is: Homo sapiens, MCF7, Table 4, alkylamino analogues, read-out: MCF-7.
Where [9] appears, read: Homo sapiens, SK-BR-3, Table 8, biphenyl ureas, Breast Cancer, read-out: IC50 SKBr3.
The mark [10] stands for this setting: Homo sapiens, MCF7, Table 8, biphenyl ureas, Breast Cancer, read-out: IC50 MCF-3.
Setting [11] is: Table 9, non-aryl ureas, Breast Cancer, read-out: IC50 SKBr3.
[12] abbreviates: Table 9, non-aryl ureas, Breast Cancer, read-out: IC50 MCF-3.
[13] abbreviates: Homo sapiens, SK-BR-3, Table 5, alkylether derivatives with cyclic N-substitutions, read-out: SKBr3.
Where [14] appears, read: Homo sapiens, MCF7, Table 5, alkylether derivatives with cyclic N-substitutions, read-out: MCF-7.
Where [15] appears, read: Table 10, modified initial novobiocin analogs, read-out: SkBr3, IC50.

Consider `COc1ccc(C(=O)Nc2cc3ccc(OC4CCN(C)CC4)c(C)c3oc2=O)cc1CC=C(C)C` [Compound 16, 4-methoxy-N-(8-methyl-7-(1-methylpiperidin-4-yloxy)-2-oxo-2H-chromen-3-yl)-3-(3-methylbut-2-enyl)benzamide], for which the IC50 stood at 1.41 ± 0.2 µM in assay [1] (setting [3]) and 1.58 ± 0.09 µM in assay [2] (setting [4]).

With `CC(C)=CCc1cc(C(=O)Nc2cc3ccc(OCCCN4CCNCC4)c(C)c3oc2=O)ccc1O`, the IC50 in assay [1] (setting [5]) stood at 0.82 ± 0.02 µM; in assay [2] (setting [6]), 0.93 ± 0.21 µM.

`CC(C)=CCc1cc(C(=O)Nc2cc3ccc(OCCCN4CCCCC4)c(C)c3oc2=O)ccc1O` [drawing 146]: the IC50 in assay [1] (setting [5]) and in assay [2] (setting [6]) was above 50 µM in each case.

With `CC(C)=CCc1cc(C(=O)Nc2cc3ccc(OCCCN(C)C(C)(C)C)c(C)c3oc2=O)ccc1O` [Compound 68k, N-(7-(3-(tert-butyl(methyl)amino)propoxy)-8-methyl-2-oxo-2H-chromen-3-yl)-4-hydroxy-3-(3-methylbut-2-en-1-yl)benzamide], the IC50 is 0.88 ± 0.1 µM in assay [1] (setting [7]) and 1.14 ± 0.11 µM in assay [2] (setting [8]).

As for `Cc1c(OC2CCN(C)CC2)ccc2cc(NC(=O)Nc3cccc(-c4ccccc4)c3)c(=O)oc12` [H, H, 1-([1,1′-biphenyl]-3-yl)-3-(8-methyl-7-((1-methylpiperidin-4-yl)oxy)-2-oxo-2H-chromen-3-yl)urea], the IC50 in assay [1] (setting [9]) was 0.38 µM; in assay [2] (setting [10]), 0.32 µM.

`Cc1c(OC2CCN(C)CC2)ccc2cc(NC(=O)Nc3ccc(O)cc3)c(=O)oc12` [p-OH, 1-(4-hydroxyphenyl)-3-(8-methyl-7-((1-methylpiperidin-4-yl)oxy)-2-oxo-2H-chromen-3-yl)urea]: the IC50 in assay [1] (Homo sapiens, SK-BR-3, Table 6, substituted phenyl ureas, Breast Cancer, read-out: IC50 SKBr3) is 1.38 µM; in assay [2] (Homo sapiens, MCF7, Table 6, substituted phenyl ureas, Breast Cancer, read-out: IC50 MCF-3) it was 1.34 µM.

Turning to `CCCNCCCOc1ccc2cc(NC(=O)c3ccc(O)c(CC=C(C)C)c3)c(=O)oc2c1C` [Compound 68d, 4-hydroxy-N-(8-methyl-2-oxo-7-(3-(propylamino)propoxy)-2H-chromen-3-yl)-3-(3-methylbut-2-en-1-yl)benzamide], the IC50 was 0.99 ± 0.03 µM in assay [1] (setting [7]) and 0.98 µM in assay [2] (setting [8]).

Regarding `Cc1c(OC2CCN(C)CC2)ccc2cc(NC(=O)NCc3ccc(Cl)cc3)c(=O)oc12`, the IC50 is 1.04 ± 0.07 µM in assay [1] (setting [11]) and 1.05 ± 0.07 µM in assay [2] (setting [12]).

Turning to `CC(C)=CCc1cc(C(=O)Nc2cc3ccc(OCCC4CCCCN4)c(C)c3oc2=O)ccc1O` (stereo not drawn), the IC50 in assay [1] (setting [5]) amounted to 0.64 ± 0.06 µM; in assay [2] (setting [6]) it was 0.71 ± 0.03 µM.

As to `CC(=O)Oc1ccc(C(=O)Nc2cc3ccc(OCC4CCN(C)C4)c(C)c3oc2=O)cc1CC=C(C)C` (stereo not drawn), the IC50 was found to be 0.88 ± 0.09 µM in assay [1] (setting [5]) and 1.88 ± 0.45 µM in assay [2] (setting [6]).

As for `CC(C)=CCc1cc(C(=O)Nc2cc3ccc(OCCCNC4C[C@H]5CC[C@@H]4C5)c(C)c3oc2=O)ccc1O` (stereo partly drawn) [Compound 70i, N-(7-(3-((1R,4S)-bicyclo[2.2.1]heptan-2-ylamino)propoxy)-8-methyl-2-oxo-2H-chromen-3-yl)-4-hydroxy-3-(3-methylbut-2-en-1-yl)benzamide], the IC50 in assay [1] (setting [13]) is 0.77 ± 0.13 µM; in assay [2] (setting [14]), 1.03 ± 0.12 µM.

Turning to `CC(C)=CCc1cc(C(=O)Nc2cc3ccc(OCC4CCCN(C)C4)c(C)c3oc2=O)ccc1O` (stereo not drawn), the IC50 in assay [1] (setting [5]) is 1.3 ± 0.63 µM; in assay [2] (setting [6]), 2.64 ± 0.45 µM.

For `CCCCOc1ccc(C(=O)Nc2cc3ccc(OC4CCN(C)CC4)c(C)c3oc2=O)cc1CC=C(C)C` [Compound 17, 4-butoxy-N-(8-methyl-7-(1-methylpiperidin-4-yloxy)-2-oxo-2H-chromen-3-yl)-3-(3-methylbut-2-enyl)benzamide], the IC50 stood at 1.4 ± 0.07 µM in assay [1] (setting [3]) and 1.44 ± 0.05 µM in assay [2] (setting [4]).

Turning to `Cc1ccc(NC(=O)Nc2cc3ccc(OC4CCN(C)CC4)c(C)c3oc2=O)cc1-c1cccc(Cl)c1` [CH3, Cl, 1-(3′-chloro-6-methyl-[1,1′-biphenyl]-3-yl)-3-(8-methyl-7-((1-methylpiperidin-4-yl)oxy)-2-oxo-2H-chromen-3-yl)urea], the values for the IC50 in assay [1] (setting [9]) and in assay [2] (setting [10]) were 0.44 µM and 0.5 µM, respectively.

Regarding `CC(C)=CCc1cc(C(=O)Nc2cc3ccc(OCCCNCc4ccccc4)c(C)c3oc2=O)ccc1O` [Compound 70e, N-(7-(3-(benzylamino)propoxy)-8-methyl-2-oxo-2H-chromen-3-yl)-4-hydroxy-3-(3-methylbut-2-en-1-yl)benzamide], the IC50 in assay [1] (setting [13]) was found to be 0.47 ± 0.16 µM; in assay [2] (setting [14]), 0.91 ± 0.01 µM.

For `CC(C)=CCc1cc(C(=O)Nc2cc3ccc(OCCCN(C(C)C)C(C)C)c(C)c3oc2=O)ccc1O` [Compound 68i, N-(7-(3-(diisopropylamino)propoxy)-8-methyl-2-oxo-2H-chromen-3-yl)-4-hydroxy-3-(3-methylbut-2-en-1-yl)benzamide], the figures for the IC50 in assay [1] (setting [7]) and in assay [2] (setting [8]) were 1.6 ± 0.02 µM and 1.31 ± 0.39 µM, respectively.

As for `CC(C)=CCc1cc(C(=O)Nc2cc3ccc(OCCCNC(C)(C)C)c(C)c3oc2=O)ccc1O` [Compound 68j, N-(7-(3-(tert-butylamino)propoxy)-8-methyl-2-oxo-2H-chromen-3-yl)-4-hydroxy-3-(3-methylbut-2-en-1-yl)benzamide], the IC50 in assay [1] (setting [7]) was 0.66 ± 0.06 µM; in assay [2] (setting [8]) it was 0.95 ± 0.1 µM.

Take `CC(C)=CCc1cc(C(=O)Nc2cc3ccc(OCCCNC(C)(C)c4ccccc4)c(C)c3oc2=O)ccc1O` [Compound 70g, 4-hydroxy-N-(8-methyl-2-oxo-7-(3-((2-phenylpropan-2-yl)amino)propoxy)-2H-chromen-3-yl)-3-(3-methylbut-2-en-1-yl)benzamide]: the figures for the IC50 in assay [1] (setting [13]) and in assay [2] (setting [14]) were 0.96 ± 0.01 µM and 1.07 ± 0.01 µM, respectively.

Turning to `CC(C)=CCc1cc(C(=O)Nc2cc3ccc(OCCCNC4CCCCC4)c(C)c3oc2=O)ccc1O` [Compound 70a, N-(7-(3-(cyclohexylamino)propoxy)-8-methyl-2-oxo-2H-chromen-3-yl)-4-hydroxy-3-(3-methylbut-2-en-1-yl)benzamide], the IC50 in assay [1] (setting [13]) is 0.66 ± 0.12 µM; in assay [2] (setting [14]), 1.07 ± 0.35 µM.

As to `CC(C)=CCc1cc(C(=O)Nc2cc3ccc(OCCCN(C)C(C)C)c(C)c3oc2=O)ccc1O` [Compound 68h, 4-hydroxy-N-(7-(3-(isopropyl(methyl)amino)propoxy)-8-methyl-2-oxo-2H-chromen-3-yl)-3-(3-methylbut-2-en-1-yl)benzamide], the IC50 is 0.57 ± 0.13 µM in assay [1] (setting [7]) and 1.05 ± 0.06 µM in assay [2] (setting [8]).

Turning to `CC(C)=CCc1cc(C(=O)Nc2cc3ccc(OCC4CCN(C)C4)c(C)c3oc2=O)ccc1O` (stereo not drawn), the values for the IC50 in assay [1] (setting [5]) and in assay [2] (setting [6]) were 0.92 ± 0.56 µM and 1.55 ± 0.04 µM, respectively.

As for `CC(C)=CCc1cc(C(=O)Nc2cc3ccc(OCCCN4CCOCC4)c(C)c3oc2=O)ccc1O` [drawing 145], the IC50 in assay [1] (setting [5]) and in assay [2] (setting [6]) was above 50 µM throughout.

Take `CC(C)=CCc1cc(C(=O)Nc2cc3ccc(OC4CCN(C)CC4)c(C)c3oc2=O)ccc1O` [drawing 134]: the IC50 in assay [2] (setting [6]) was 1.09 ± 0.1 µM.

`CC(=O)Oc1ccc(C(=O)Nc2cc3ccc(OCC4CCCNC4)c(C)c3oc2=O)cc1CC=C(C)C` (stereo not drawn): the results for the IC50 in assay [1] (setting [5]) and in assay [2] (setting [6]) were 0.62 ± 0.04 µM and 0.82 ± 0.07 µM, respectively.

`Cc1ccc(CNC(=O)Nc2cc3ccc(OC4CCN(C)CC4)c(C)c3oc2=O)cc1`: the IC50 was 0.56 ± 0.07 µM in assay [1] (setting [11]) and 0.55 ± 0.02 µM in assay [2] (setting [12]).

In the case of `CCN(C)CCCOc1ccc2cc(NC(=O)c3ccc(O)c(CC=C(C)C)c3)c(=O)oc2c1C` [Compound 68b, N-(7-(3-(ethyl(methyl)amino)propoxy)-8-methyl-2-oxo-2H-chromen-3-yl)-4-hydroxy-3-(3-methylbut-2-en-1-yl)benzamide], the IC50 in assay [1] (setting [7]) amounted to 0.73 ± 0.06 µM; in assay [2] (setting [8]), 2.19 ± 0.5 µM.

For the molecule `CC(C)=CCc1cc(C(=O)Nc2cc3ccc(OCCCN4CCN(C)CC4)c(C)c3oc2=O)ccc1O` [drawing 143], the figures for the IC50 in assay [1] (setting [5]) and in assay [2] (setting [6]) were 1.01 ± 0.03 µM and 1.2 ± 0.12 µM, respectively.

Consider `CCNCCCOc1ccc2cc(NC(=O)c3ccc(O)c(CC=C(C)C)c3)c(=O)oc2c1C` [Compound 68a, N-(7-(3-(ethylamino)propoxy)-8-methyl-2-oxo-2H-chromen-3-yl)-4-hydroxy-3-(3-methylbut-2-en-1-yl)benzamide], for which the IC50 in assay [1] (setting [7]) was 0.72 ± 0.34 µM; in assay [2] (setting [8]) it was 0.98 ± 0.35 µM.

In the case of `COc1ccc(CNC(=O)Nc2cc3ccc(OC4CCN(C)CC4)c(C)c3oc2=O)cc1`, the figures for the IC50 in assay [1] (setting [11]) and in assay [2] (setting [12]) were 0.68 ± 0.06 µM and 0.65 ± 0.11 µM, respectively.

Take `Cc1ccc(NC(=O)Nc2cc3ccc(OC4CCN(C)CC4)c(C)c3oc2=O)cc1C` [Compound 10]: the IC50 in assay [1] (setting [15]) stood at 0.31 ± 0.09 µM.

Regarding `CC(C)=CCc1cc(C(=O)Nc2cc3ccc(OC4CCN(C)CC4)c(C)c3oc2=O)ccc1O` [Compound 2], the IC50 stood at 1.09 ± 0.1 µM in assay [2] (setting [4]); 1.09 ± 0.1 µM in assay [2] (Homo sapiens, MCF7, Table 2, modified benzamide and biphenylamide derivatives (in μM), read-out: MCF-7); 1.09 µM in assay [2] (Homo sapiens, MCF7, amide versus urea linkage, read-out: IC50 for MCF-3).

For `Cc1c(OC2CCN(C)CC2)ccc2cc(NC(=O)Nc3ccc(Cl)cc3)c(=O)oc12` [Compound 8], in assay [1] (setting [15]), the IC50 was found to be 0.17 ± 0.01 µM.

Take `Cc1c(OCCC2CCCCN2)ccc2cc(NC(=O)Nc3ccc(Cl)cc3)c(=O)oc12` (stereo not drawn) [Compound 11]: the IC50 in assay [1] (setting [15]) amounted to 0.21 ± 0.06 µM.
